According to patent US8952024B2, “Herbicidal pyrimidone derivatives” (E I du Pont de Nemours and Company, priority 2009, dated 2015):

Legend:
Assay type in all cases: in vivo
[1] = test system: barnyardgrass (Echinochloa crus-galli); assay: Test A pre-/postemergence plant response
In short: (§1)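 Seeds planted in loam soil/sand blend; test chemicals in non-phytotoxic solvent mixture with surfactant applied as directed soil spray preemergence and, concurrently, postemergence to plants 2–10 cm tall at one- to two-leaf stage. Greenhouse ~10 days; visual injury vs untreated controls, 0 (no effect) to 100 (complete control).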

corn (Zea mays) = assay: Test A pre-/postemergence plant response
In short: as §1

[2] = test system: giant foxtail (Setaria faberii); assay: Test A pre-/postemergence plant response
In short: as §1

[3] = test system: large crabgrass (Digitaria sanguinalis); assay: Test A pre-/postemergence plant response
In short: as §1

[4] = test system: morningglory (Ipomoea spp.); assay: Test A pre-/postemergence plant response
In short: as §1

[5] = test system: pigweed (Amaranthus retroflexus); assay: Test A pre-/postemergence plant response
In short: as §1

[6] = test system: velvetleaf (Abutilon theophrasti); assay: Test A pre-/postemergence plant response
In short: as §1

[7] = test system: wheat (Triticum aestivum); assay: Test A pre-/postemergence plant response
In short: as §1

[8] = test system: barnyardgrass (Echinochloa crus-galli); assay: Test B flooded paddy test; conditions: for Plant response rating, Flood, Barnyardgrass: 250 g ai/ha, flooded paddy test, visual rating on 0 to 100 scale (0 no effect, 100 complete control) after 13 to 15 days; for Plant response rating, Barnyardgrass: Flood (flooded paddy test), 13 to 15 days
In short: (§2)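 Ratings are visual, 0–100 (100 = complete control), taken versus untreated controls 13 to 15 days after treatment in the greenhouse. Compound went straight into paddy water held 3 cm above soil, applied to 2-leaf-stage plants of four species.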

[9] = test system: ducksalad (Heteranthera limosa); assay: Test B flooded paddy test; conditions: for Plant response rating, Flood, Ducksalad: 250 g ai/ha, flooded paddy test, visual rating on 0 to 100 scale (0 no effect, 100 complete control) after 13 to 15 days; for Plant response rating, Ducksalad: Flood (flooded paddy test), 13 to 15 days
In short: as §2

rice (Oryza sativa) = assay: Test B flooded paddy test; conditions: for Plant response rating, Flood, Rice: 250 g ai/ha, flooded paddy test, visual rating on 0 to 100 scale (0 no effect, 100 complete control) after 13 to 15 days; for Plant response rating, Rice: Flood (flooded paddy test), 13 to 15 days
In short: as §2

[10] = test system: umbrella sedge (Cyperus difformis); assay: Test B flooded paddy test; conditions: for Plant response rating, Flood, Sedge, Umbrella: 250 g ai/ha, flooded paddy test, visual rating on 0 to 100 scale (0 no effect, 100 complete control) after 13 to 15 days; for Plant response rating, Sedge, Umbrella: Flood (flooded paddy test), 13 to 15 days
In short: as §2

[11] = Postemergence, 125 g ai/ha, visual injury, 0 to 100 scale (0 no effect, 100 complete control), approx. ten days
[12] = Postemergence, 500 g ai/ha, 0 to 100 scale, 0 = no effect, 100 = complete control, approx. ten days
[13] = Preemergence, 125 g ai/ha, 0 to 100 scale, 0 = no effect, 100 = complete control
[14] = Preemergence, 500 g ai/ha, visual injury, 0 to 100 scale (0 no effect, 100 complete control), approx. ten days
[15] = 31 g ai/ha, scale of 0 to 100 where 0 is no effect and 100 is complete control
[16] = 62 g ai/ha, scale 0 to 100, 0 is no effect, 100 is complete control
[17] = 125 g ai/ha, scale 0 to 100, 0 is no effect, 100 is complete control
[18] = Postemergence, 125 g ai/ha, 0 to 100 scale where 0 is no effect and 100 is complete control
[19] = 62 g ai/ha, scale of 0 to 100 where 0 is no effect and 100 is complete control
[20] = Flood, 31 g ai/ha, scale 0 to 100 (0 no effect, 100 complete control)

Cc1ccccc1-n1c(-c2cccc(Cl)c2)ncc(C(=O)C2=C(O)CCCC2=O)c1=O [Compound 36]
Barnyardgrass plant response rating [1, 11]: 90 | Plant response rating, Barnyardgrass [1, 12]: 100 | Plant response rating, Barnyardgrass [1, 13]: 10 | Plant response rating, Barnyardgrass [1, 14]: 50 | Corn plant response rating (corn (Zea mays); [11]): 0 | Plant response rating, Corn (corn (Zea mays); [12]): 60 | Plant response rating, Corn (corn (Zea mays); [13]): 0 | Plant response rating, Corn (corn (Zea mays); [14]): 0 | Foxtail, Giant plant response rating [2, 11]: 80 | Plant response rating, Foxtail, Giant [2, 12]: 100 | Plant response rating, Foxtail, Giant [2, 13]: 10 | Plant response rating, Foxtail, Giant [2, 14]: 60 | Crabgrass, Large plant response rating [3, 11]: 80 | Plant response rating, Crabgrass, Large [3, 12]: 100 | Plant response rating, Crabgrass, Large [3, 13]: 10 | Plant response rating, Crabgrass, Large [3, 14]: 80 | Morningglory plant response rating [4, 11]: 50 | Plant response rating, Morningglory [4, 12]: 100 | Plant response rating, Morningglory [4, 13]: 0 | Plant response rating, Morningglory [4, 14]: 30 | Pigweed plant response rating [5, 11]: 90 | Plant response rating, Pigweed [5, 12]: 100 | Plant response rating, Pigweed [5, 13]: 0 | Plant response rating, Pigweed [5, 14]: 80 | Velvetleaf plant response rating [6, 11]: 100 | Plant response rating, Velvetleaf [6, 12]: 100 | Plant response rating, Velvetleaf [6, 13]: 60 | Plant response rating, Velvetleaf [6, 14]: 100 | Wheat plant response rating [7, 11]: 0 | Plant response rating, Wheat [7, 12]: 0 | Plant response rating, Wheat [7, 13]: 0 | Plant response rating, Wheat [7, 14]: 20 | Plant response rating, Flood, Barnyardgrass [8]: 15 | Plant response rating, Barnyardgrass [8, 15]: 0 | Plant response rating, Barnyardgrass [8, 16]: 0 | Plant response rating, Barnyardgrass [8, 17]: 0 | Plant response rating, Flood, Ducksalad [9]: 40 | Plant response rating, Ducksalad [9, 15]: 0 | Plant response rating, Ducksalad [9, 16]: 0 | Plant response rating, Ducksalad [9, 17]: 0 | Plant response rating, Flood, Rice (rice (Oryza sativa)): 35 | Plant response rating, Rice (rice (Oryza sativa); [15]): 0 | Plant response rating, Rice (rice (Oryza sativa); [16]): 0 | Plant response rating, Rice (rice (Oryza sativa); [17]): 20 | Plant response rating, Flood, Sedge, Umbrella [10]: 20 | Plant response rating, Sedge, Umbrella [10, 15]: 0 | Plant response rating, Sedge, Umbrella [10, 16]: 0 | Plant response rating, Sedge, Umbrella [10, 17]: 0

COCCn1c(-c2cccc(F)c2)ncc(C(=O)C2=C(O)CCCC2=O)c1=O [Compound 123]
Plant response rating, Barnyardgrass [1, 18]: 80 | Plant response rating, Barnyardgrass [1, 12]: 90 | Plant response rating, Barnyardgrass [1, 13]: 50 | Plant response rating, Barnyardgrass [1, 14]: 100 | Plant response rating, Corn (corn (Zea mays); [18]): 20 | Plant response rating, Corn (corn (Zea mays); [12]): 70 | Plant response rating, Corn (corn (Zea mays); [13]): 0 | Plant response rating, Corn (corn (Zea mays); [14]): 30 | Plant response rating, Foxtail, Giant [2, 18]: 70 | Plant response rating, Foxtail, Giant [2, 12]: 80 | Plant response rating, Foxtail, Giant [2, 13]: 50 | Plant response rating, Foxtail, Giant [2, 14]: 100 | Plant response rating, Crabgrass, Large [3, 18]: 80 | Plant response rating, Crabgrass, Large [3, 12]: 90 | Plant response rating, Crabgrass, Large [3, 13]: 100 | Plant response rating, Crabgrass, Large [3, 14]: 100 | Plant response rating, Morningglory [4, 18]: 100 | Plant response rating, Morningglory [4, 12]: 100 | Plant response rating, Morningglory [4, 13]: 70 | Plant response rating, Pigweed [5, 18]: 100 | Plant response rating, Pigweed [5, 12]: 100 | Plant response rating, Pigweed [5, 13]: 90 | Plant response rating, Pigweed [5, 14]: 100 | Plant response rating, Velvetleaf [6, 18]: 100 | Plant response rating, Velvetleaf [6, 12]: 100 | Plant response rating, Velvetleaf [6, 13]: 70 | Plant response rating, Velvetleaf [6, 14]: 100 | Plant response rating, Wheat [7, 18]: 0 | Plant response rating, Wheat [7, 12]: 20 | Plant response rating, Wheat [7, 13]: 0 | Plant response rating, Wheat [7, 14]: 20 | Plant response rating, Flood, Barnyardgrass [8]: 70 | Plant response rating, Barnyardgrass [8, 19]: 40 | Plant response rating, Barnyardgrass [8, 17]: 55 | Barnyardgrass plant response rating [8, 20]: 30 | Plant response rating, Flood, Ducksalad [9]: 95 | Plant response rating, Ducksalad [9, 19]: 80 | Plant response rating, Ducksalad [9, 17]: 90 | Ducksalad plant response rating [9, 20]: 30 | Plant response rating, Flood, Rice (rice (Oryza sativa)): 40 | Plant response rating, Rice (rice (Oryza sativa); [19]): 20 | Plant response rating, Rice (rice (Oryza sativa); [17]): 30 | Rice plant response rating (rice (Oryza sativa); [20]): 0 | Plant response rating, Flood, Sedge, Umbrella [10]: 85 | Plant response rating, Sedge, Umbrella [10, 19]: 70 | Plant response rating, Sedge, Umbrella [10, 17]: 75 | Sedge, Umbrella plant response rating [10, 20]: 40
